The test system of one series is HEK293. Briefly: Cytotoxicity, CellTiter-Glo cell viability assay, kidney cells. It is filed as cell-based, human. Conditions: human, HEK293 (HEK293T) human embryonic kidney cells. Here is the method: The cytotoxicity of compounds may be evaluated by treating HEK293 human embryonic kidney cells with increasing concentrations of compounds for 24-48 hours followed by the quantification of living cells using Cell-Titer Glo (Promega).
Compounds with increased cytotoxicity can be identified using an in vitro cytotoxicity assay. Therefore, human embryonic kidney 293T (HEK293T) cell lines were purchased (ATCC) and cultured in 75 cm2 flasks (CellStar). Cells were grown in DMEM/High Glucose (Hyclone, #SH3024301) media to which non-essential amino acids (Hyclone, #SH30238.01), 10 mM HEPES (Hyclone, #SH302237.01), 5×106 units of penicillin and streptomycin (Hyclone, #SV30010), and 10% of heat inactivated fetal bovine serum (Gibco, #10082147) were added. Cells were harvested using 0.05% Trypsin (Hyclone, #SH3023601). The cell viability assay was evaluated using CellTiter-Glo™ Luminescent Cell Viability Assay Kit (Promega, Madison, Wis.), which contains luciferase and all its substrate except ATP. The controls for the cytotoxicity assay used were (E)-10-(bromotriphenylphosphoranyl)decyl 4-(4-(tert-butyl)phenyl)-4-oxobut-2-enoate (400 μM in DMSO, positive control) and DMSO (negative control). All luminescence readings were performed on a Tecan Infinite M1000 plate reader. Small volume transfers were performed on the Tecan Freedom EVO liquid handling system with a 100 nL pin tool transfer (V&P Scientific). Serial dilutions were done in 96-well polypropylene plates (Corning, #3365) and assays were conducted in 384-well white optical bottom plates. The assays were carried out in quadruplet in three independent runs. The data were normalized to the controls and if possible analyzed by nonlinear regression (GraphPad Prism).
For orientation: Cellular ATP, detected with luciferase, serves as a proxy for viable cell number.

The next series concerns HEPG2. Kind of series: Cytotoxicity, liver cells. Conditions: human, HepG2 liver cells. It is filed as cell-based, human.
In another series the test system is IL-17, TNFα, IL-4. Kind of series: Lung cytokine levels by cytometric bead array. The class given is in vivo. Conditions: ova s/c mice. The text has this: The change of cytokine expression caused by compounds may be investigated in the lung of Ova S/C mice. Therefore, lungs of treated and non-treated asthmatic mice may be harvested, homogenized and cleared by centrifugation. Cytokines may be identified and quantified with specific antibodies and flow cytometry.
Anti-inflammatory properties of compounds in respect to cytokine production were investigated after the AHR measurement by harvesting the lungs of treated and non-treated Ova S/C mice (N=10). Whole lungs were homogenized in 200 μL of T-PER® tissue protein extraction reagent (Thermo Fisher Scientific Inc., Rockford, Ill.) containing 1× protease inhibitor cocktail using a hand-held tissue homogenizer. Homogenized lung samples were centrifuged at 10,000 RPM for 5 minutes to pellet cell/tissue debris. Tissue supernatant was collected for cytokine analysis using BD cytometric bead array mouse Th1/Th2/Th17 cytokine kit (BD Biosciences, San Jose, Calif.) following manufacturer's instruction. Data were analyzed using GraphPad Prism 4 (GraphPad Software, San Diego, Calif.) and expressed as mean±SEM. One-way analysis of variance (ANOVA) with Dunnet post hoc test was performed for statistical difference for multiple groups. […] Data represent mean±SEM from 10 mice in each group. *, **, and *** indicate p<0.05, p<0.01, and p<0.001 significance. The ova s/c mice expressed higher levels of IFN-γ, IL-6, and IL-2 but the change was not significant in comparison to normal mice.

In series [1] the test system is α1β3γ2 or α4β3γ2 GABAAR expressing HEK293T cells. Kind of series: Automated patch clamp with EC20 GABA in HEK293T cells. The class given is cell-based. Conditions: GABA EC20, 3 seconds application. (In patch-clamp work, channel activity is measured electrically.)
In series [2] the test system is human airway smooth muscle. Briefly: Relaxation of acetylcholine contracted human airway smooth muscle strips. The note with it: EC50 acetylcholine, 100 μM compound, 15-60 minutes.

Some results are limits rather than exact numbers.

Turning to `C[C@H]1N=C(c2ccccc2F)c2cc(Br)ccc2-n2cnc(C(=O)O)c21` [GL-II-93, (R)-8-bromo-6-(2-fluorophenyl)-4-methyl-4H-benzo[f]imidazo[1,5-a][1,4]diazepine-3-carboxylic acid], the “LD50 HEK293 (Kidney)” value in the series on HEK293 is above 400 µM. Besides, the “LD50 HEPG2 (Liver)” value in the series on HEPG2 was above 400 µM. Moreover, in the series on IL-17, TNFα, IL-4, the “level of IL-4 in the mouse lung” value was “reduced the levels of IL-17, TNFα, and IL-4”; the “level of IL-17 in the mouse lung” value is “reduced the levels of IL-17”; the “level of TNFα in the mouse lung” value was “reduced the levels of IL-17, TNFα”.
Take `CCOC(=O)c1ncn2c1[C@@H]1CCCN1C(=O)c1cc(O)ccc1-2` [RJ-02-50, ethyl (S)-7-hydroxy-9-oxo-11,12,13,13a-tetrahydro-9H-benzo[e]imidazo[5,1-c]pyrrolo[1,2-a][1,4]diazepine-1-carboxylate]: in series [1], the “GABAA receptor subtype selectivity, current response” value was “positive α4β3γ2-selective GABAA receptor modulator”. The “LD50 HEK293 (Kidney)” value with HEK293 is above 400 µM. In addition, in the series on HEPG2, the “LD50 HEPG2 (Liver)” value is above 400 µM.
In the case of `O=C1c2cc(O)ccc2-n2cnc(-c3cnco3)c2[C@@H]2CCCN12` [RJ-03-30, (S)-7-hydroxy-1-(oxazol-5-yl)-11,12,13,13a-tetrahydro-9H-benzo[e]imidazo[5,1-c]pyrrolo[1,2-a][1,4]diazepin-9-one], in the series on HEK293, the “LD50 HEK293 (Kidney)” value is above 400 µM. In the series with HEPG2, the “LD50 HEPG2 (Liver)” value was above 400 µM.
For `C#Cc1ccc2c(c1)C(c1ccccc1F)=N[C@H](C)c1c(C(=O)O)ncn1-2` [SH-053-2′F-R-CH3-Acid, (R)-8-ethynyl-6-(2-fluorophenyl)-4-methyl-4H-benzo[f]imidazo[1,5-a][1,4]diazepine-3-carboxylic acid], the “LD50 HEK293 (Kidney)” value in the series on HEK293 is above 400 µM. Moreover, the “LD50 HEPG2 (Liver)” value with HEPG2 was above 400 µM. Besides, the “human airway smooth muscle contractile force” value in series [2] is listed as “reduced the constriction of human airway smooth muscle after 15 minutes for a period of at least 60 minutes”.
